US9801901B2, “Alginate oligomers for use in overcoming multidrug resistance in bacteria” (priority 2009, dated 2017)
Marks after values point to notes of the source that are not given here.

Experiments:
[1] = tested on: PA01 Pseudomonas aeruginosa ATCC 15692; test: MIC assay, two-fold antibiotic dilutions in CAMHB with alginate oligomer, no visible growth; type: cell-based
[2] = tested on: Pseudomonas aeruginosa MDR R22 from China (V1); test: MIC assay, CAMHB with alginate oligomer, no visible growth; type: cell-based; settings: Pseudomonas aeruginosa, Table 1, V1 MDR R22 PA
From the text: (§1) The study described in Example 1 was repeated with the following strains of bacteria and antibiotics as detailed in Tables 4, 5 and 6.

[3] = tested on: Pseudomonas aeruginosa CFA 24-1, clinical mucoid strain (R80); test: as above; type: cell-based
[4] = tested on: V12 5725 (Wales) Klebsiella pneumoniae; test: as above; type: cell-based
[5] = tested on: Pseudomonas aeruginosa ATCC 39324, mucoid type strain (R79); test: as above; type: cell-based
[6] = tested on: V10 (Egypt) Acinetobacter lwoffii; test: as above; type: cell-based
[7] = tested on: V23 1322 Burkholderia cepacia; test: as above; type: cell-based; settings: Table 6, V23
[8] = tested on: Acinetobacter baumannii MDR ACB from Libya (V4); test: as above; type: cell-based
From the text: as §1
The study described in Example 1 was repeated with the following strains of Acinetobacter baumannii, antibiotics and M-block alginate oligomer in place of OligoG CF-5/20 as detailed in Table 7. The M-block oligomer is 100% M with a DPn of 15 to 18,

[9] = tested on: Klebsiella pneumoniae KP05 506 from India (V3); test: as above; type: cell-based; settings: for MIC: Klebsiella pneumoniae, Table 1, V3 KP05 506
V11 5702 (Wales) E. coli = test: as above; type: cell-based
MDR Pseudomonas strains = test: MIC assay of Example 1, summary over the MDR Pseudomonas strains; type: cell-based, Pseudomonas aeruginosa
V22 6056 Acinetobacter = test: MIC assay, CAMHB with alginate oligomer, no visible growth; type: cell-based, Acinetobacter lwoffii
[10] = tested on: V9 (Egypt) Acinetobacter baumannii; test: as above; type: cell-based
[11] = tested on: MDR strains of Pseudomonas aeruginosa, Klebsiella pneumoniae, Burkholderia cepacia, Acinetobacter lwoffii, Acinetobacter baumannii and E. coli; test: MIC assay of Example 2, summary over the strains of Tables 4, 5 and 6; type: cell-based; settings: Example 2, Tables 4, 5 and 6
[12] = tested on: Pseudomonas aeruginosa MDR 301 from Poland (V2); test: MIC assay, CAMHB with alginate oligomer, no visible growth; type: cell-based; settings: Pseudomonas aeruginosa, Table 1, V2 MDR 301 PA

CC1(C)C[C@@H]1C(=O)N/C(=C\CCCCSC[C@H](N)C(=O)O)C(=O)O [Primaxin, Imipenem/cilastatin]
8 µg/mL: MIC (V22 6056 Acinetobacter; Acinetobacter) | MIC (V22 6056 Acinetobacter; Table 5, V22 MDR Acin. lwoff, OligoCF-5/20 +2% G) | MIC (V22 6056 Acinetobacter; Table 5, V22 MDR Acin. lwoff, OligoCF-5/20 +6% G)
4^† μg/ml: MIC (V22 6056 Acinetobacter; Table 5, V22 MDR Acin. lwoff, OligoCF-5/20 +10% G)
more effective: effectiveness when used in combination with the alginate oligomers (MDR Pseudomonas strains)
128 µg/mL: MIC ([2]; OligoCF-5/20 0G) | MIC ([2]; OligoCF-5/20 +2% G) | MIC ([7]; Burkholderia cepacia, Experiment 1 (18-03-10), OligoCF-5/20 0G) | MIC ([7]; Experiment 1 (18-03-10), OligoCF-5/20 +2% G) | MIC ([12]; OligoCF-5/20 +10% G)
<0.5^† μg/ml: MIC ([10]; Table 5, V9 MDR Acin. baum, OligoCF-5/20 +6% G) | MIC ([10]; Table 5, V9 MDR Acin. baum, OligoCF-5/20 +10% G)
64 µg/mL: MIC ([2]; OligoCF-5/20 +6% G) | MIC ([9]; OligoCF-5/20 +2% G) | MIC ([9]; OligoCF-5/20 +6% G) | MIC ([9]; OligoCF-5/20 +10% G)
< 1 µg/mL: MIC ([1]; Pseudomonas aeruginosa, ATCC15692) | MIC ([3]; Pseudomonas aeruginosa) | MIC ([5]; Pseudomonas aeruginosa, ATCC39324) | MIC ([8]; Acinetobacter baumannii)
512 µg/mL: MIC ([12]; OligoCF-5/20 0G)
1 µg/mL: MIC ([10]; Acinetobacter baumannii)
<0.5 µg/mL: MIC ([4]; Table 5, V12 MDR Kleb pneu, OligoCF-5/20 +2% G) | MIC ([4]; Table 5, V12 MDR Kleb pneu, OligoCF-5/20 +6% G) | MIC ([4]; Table 5, V12 MDR Kleb pneu, OligoCF-5/20 +10% G) | MIC ([6]; Table 5, V10 MDR Acin. lwoff, OligoCF-5/20 +2% G) | MIC ([6]; Table 5, V10 MDR Acin. lwoff, OligoCF-5/20 +6% G) | MIC ([6]; Table 5, V10 MDR Acin. lwoff, OligoCF-5/20 +10% G) | MIC (V11 5702 (Wales) E. coli; Table 5, V11 MDR E.coli, OligoCF-5/20 +2% G) | MIC (V11 5702 (Wales) E. coli; Table 5, V11 MDR E.coli, OligoCF-5/20 +6% G) | MIC (V11 5702 (Wales) E. coli; Table 5, V11 MDR E.coli, OligoCF-5/20 +10% G)
256 µg/mL: MIC ([7]; Burkholderia cepacia, Experiment 2 (18-03-10), OligoCF-5/20 0G) | MIC ([7]; Burkholderia cepacia, Experiment 3 (19-03-10), OligoCF-5/20 0G) | MIC ([7]; Experiment 3 (19-03-10), OligoCF-5/20 +2% G) | MIC ([7]; Experiment 3 (19-03-10), OligoCF-5/20 +6% G) | MIC ([12]; OligoCF-5/20 +2% G) | MIC ([12]; OligoCF-5/20 +6% G)
2 µg/mL: MIC ([10]; Table 5, V9 MDR Acin. baum, OligoCF-5/20 +2% G)
128^† μg/ml: MIC ([7]; Experiment 2 (18-03-10), OligoCF-5/20 +2% G) | MIC ([7]; Experiment 2 (18-03-10), OligoCF-5/20 +6% G) | MIC ([7]; Experiment 3 (19-03-10), OligoCF-5/20 +10% G)
inconclusive: effectiveness in conjunction with alginate oligomers ([9]; Example 1, KP05 506)
32^† μg/ml: MIC ([7]; Experiment 1 (18-03-10), OligoCF-5/20 +10% G)
decreasing MICs: change of MIC with increasing amounts of OligoG CF-5/20 [11]
64^† μg/ml: MIC ([7]; Experiment 1 (18-03-10), OligoCF-5/20 +6% G) | MIC ([7]; Experiment 2 (18-03-10), OligoCF-5/20 +10% G)
32 µg/mL: MIC ([2]; OligoCF-5/20 +10% G) | MIC ([9]; OligoCF-5/20 0G)
<1 µg/mL: MIC ([1]; Table 1, PA01, OligoCF-5/20 +2% G) | MIC ([1]; Table 1, PA01, OligoCF-5/20 +6% G) | MIC ([1]; Table 1, PA01, OligoCF-5/20 +10% G) | MIC ([3]; Table 1, R80, OligoCF-5/20 +2% G) | MIC ([3]; Table 1, R80, OligoCF-5/20 +6% G) | MIC ([3]; Table 1, R80, OligoCF-5/20 +10% G) | MIC ([5]; Table 1, R79, OligoCF-5/20 +2% G) | MIC ([5]; Table 1, R79, OligoCF-5/20 +6% G) | MIC ([5]; Table 1, R79, OligoCF-5/20 +10% G) | MIC ([8]; Table 1, V4 ACB (Libya), OligoCF-5/20 +2% G) | MIC ([8]; Table 1, V4 ACB (Libya), OligoCF-5/20 +6% G) | MIC ([8]; Table 1, V4 ACB (Libya), OligoCF-5/20 +10% G)
< 0.5 µg/mL: MIC ([4]; Klebsiella pneumoniae) | MIC ([6]; Acinetobacter lwoffii) | MIC (V11 5702 (Wales) E. coli; Escherichia coli)
